# Measurements: patent US20100260697A1, “Composition Containing An Extract of the Fruit of Schisandra Chinensis and Process for Producing Same” (COGNIS FRANCE S.A.S., priority 2003, published 2010)
# Where “and” joins values, the source holds several entries; their conditions need not be identical. Identical values can stand only once.
# Experiments:
# melanocytes B16 = assay: Inhibition of melanin synthesis; whitening activity on melanocytes B16; assay type: cell-based; conditions: for Melanin / Proteins: % against control, 3 days
# Method: The whitening activity of the extract was evaluated on a cell line of melanocytes (melanocytes B16 were used; this is a cell line known to the skilled person in the art). The melanocytes were exposed to the extract for 3 days at 37° C. and then the melanocytes were homogenised in 1 n NaOH and the level of melanin was evaluated by measuring the optical density at 475 nm. The level of proteins in the cells was determined by Bradford's method.
# The results are expressed in % refering of the control and the whitening potential is characterised by the ratio of melanin level by the protein level (or melanin/protein) for a non toxic concentration of the tested compound.
# human fibroblasts = assay: Protection of human fibroblasts against UV-A radiation (released MDA, cellular proteins); assay type: cell-based; conditions: % versus non-irradiated control; UV-A 20 J/cm2; dose 0.0003 % w/v
# Method: The aim of this test is to evaluate the capacities against oxidative stress of the extract by a test on a cell culture of human fibroblasts in vitro. This test in vitro evaluates the capacities of cytophotoprotection of human fibroblasts against UV-A radiation. […] The formed lipoperoxydes split in malondialdehyde responsible of the reticulation of many biological molecules such as proteins (inhibition of enzymes) and nucleic bases (mutagenesis).
# The fibroblasts were seeded in a defined culture medium with foetal calf serum (FCS). […] At the end of the irradiation, the level of MDA (malondialdehyde) was measured in the supernatant by a chemical reaction of MDA with thiobarbituric acid which produces a coloured compound the concentration of which was determined by measuring optical density and the level of proteins was measured in the cell homogenate by Bradford's method. Bradford's method is a known method to quantify the level of proteins (Bradford M M., A rapid and sensitive method for the quantification of microgram quantities of protein utilizing the principle of protein-dye binding. Anal. Biochem., Vol 72, pages 248 to 254, 1976).
# The results are expressed as % versus the irradiated control or MDA, and the non-irradiated control for proteins then as an average value of 2 tests in triplicate: […]
compound,measurement,setting,value
OC[C@H]1O[C@@H](Oc2ccc(O)cc2)[C@H](O)[C@@H](O)[C@@H]1O [Arbutin],Melanin,melanocytes B16; dose 0.2 % w/v,54%
same,Proteins,melanocytes B16; dose 0.2 % w/v,86%
same,Index = Proteins/Melanin,melanocytes B16; dose 0.2 % w/v,1.60
O=c1cc(CO)occ1O [Kojic acid],Melanin,melanocytes B16; dose 0.03 % w/v,26%
same,Proteins,melanocytes B16; dose 0.03 % w/v,89%
same,Index = Proteins/Melanin,melanocytes B16; dose 0.03 % w/v,3.37
vitamin E,Cellular Proteins,human fibroblasts,110% and 96%
